# Earlier results, collected in patent publication US20140039057A1, “Compositions” (Reckitt Benckiser Healthcare (UK) Limited, priority 2008, published 2014).
# Settings: phase II and phase III clinical studies
structure (smiles),measurement,value
CC(C(=O)O)c1ccc(-c2ccccc2)c(F)c1 (stereo not shown) [Flurbiprofen],efficacy in the treatment of sore throat,efficacious
